Reference: paper PMC8206078, “Identification of pyrogallol as a warhead in design of covalent inhibitors for the SARS-CoV-2 3CL protease” (Nature Communications, 2021)
Several values for one entry are separate records, joined by “and”; a condition that tells them apart may be missing. Equal values may be shown once. Read-outs that look alike come from different tables or passages of the source.

What was measured:
[1] = test system: SARS-CoV-2 replication in Vero E6 cells; conditions: cited from earlier work
[2] = for myricetin consumed: GSH, 600 min
[3] = test system: SARS-CoV-2 replication in Vero E6 cells; test: microbe, parasite or virus in culture; type: cell-based
in vivo = conditions: male, ICR, mouse; for AUC(0-inf): AUCINF_obs; for AUC(0-t): AUClast; for MRT inf: MRTINF_obs; for half-life: T1/2
[4] = male, ICR, in vivo, po, 30 mg/kg
PK study in mice = conditions: mouse; for half-life: male, ICR, plasma; for T1/2: individual animals
[5] = biological target: chymotrypsin from bovine pancreas (Bos taurus, UniProt P00766); test: biochemical
in vitro = conditions: African green monkey
SARS-CoV-2 PLpro = SARS-CoV-2 PLpro (Severe acute respiratory syndrome coronavirus 2, UniProt P0DTD1); type: biochemical
[6] = Severe acute respiratory syndrome coronavirus 2, Vero C1008, 24 h
[7] = iv, 10 mg/kg, Concentration in mouse plasma, Mean
[8] = po, 30 mg/kg, Concentration in mouse plasma
[9] = po, 30 mg/kg, Concentration in mouse plasma, Mean
[10] = Severe acute respiratory syndrome coronavirus 2, Vero C1008

O=c1cc(-c2ccccc2)oc2cc(O)c(O)c(O)c12 [baicalein, reference compound]
EC50 [1]: 2.94 µM
adduct with GSH [2]: no adduct of GSH with baicalein was detected

COc1cc(O)c2c(=O)c(O)c(-c3cc(O)c(O)c(O)c3)oc2c1 [compound 3, 7-O-methyl myricetin]
EC50 [3, 6]: 12.6 µM

O=c1c(O)c(-c2cc(O)c(O)c(O)c2)oc2cc(OCC3CCCC3)cc(O)c12 [compound 6, 7-O-cyclopentylmethyl-myricetin]
inhibition ratio (%) ([3]; 100 µM): 99.992% and 99.991% and 99.989% and 98.833% and 95.7336% and 99.607% and 99.987% and 99.985%
EC50 ([3]; read-out: EC50): 10.1 µM and 7.07 µM and 5.5 µM

COc1cc(O)c2c(c1)O[C@H](c1cc(O)c(O)c(O)c1)[C@@H](O)C2=O [compound 7, 7-O-methyl dihydromyricetin]
bioavailability (in vivo): 18.1%
MRT (in vivo; iv, 10 mg/kg): 41.4 ± 51.6 min
concentration at 0.05 h (in vivo; [7]): 3190 ng/mL
concentration at 2 h (in vivo; [7]): 62.4 ng/mL
concentration at 4 h (in vivo; [7]): 23.6 ng/mL
concentration at 8 h (in vivo; [7]): 0 ng/mL
concentration at 24 h (in vivo; [7]): 0 ng/mL
MRT (in vivo; po, 30 mg/kg): 113 min
Tmax (in vivo; po, 30 mg/kg): 15 min
bioavailability (in vivo; po, 30 mg/kg): 18.1%
AUC(0-inf) (in vivo; po, 30 mg/kg): 588 ng·h/mL
AUC(0-t) (in vivo; po, 30 mg/kg): 510 ng·h/mL
concentration at 0.5 h (in vivo; [8]): 200 ng/mL
concentration at 1 h (in vivo; [8]): 112 ng/mL
concentration at 8 h (in vivo; [8]): 10.1 ng/mL
concentration at 0.5 h (in vivo; [9]): 279 ng/mL
concentration at 1 h (in vivo; [9]): 118 ng/mL
concentration at 2 h (in vivo; [9]): 61.2 ng/mL
concentration at 4 h (in vivo; [9]): 32.9 ng/mL
concentration at 8 h (in vivo; [9]): 4.32 ng/mL
concentration at 24 h (in vivo; [9]): 0 ng/mL
Concentration in mouse plasma ([4]; 8 h): 11.5 ng/mL
inhibition ratio (%) ([3]; 6.25 µM): 21.811% and 15.067% and 12.154%
inhibition ratio (%) ([3]; 25 µM): 58.083% and 57.749% and 55.409%
inhibition ratio (%) ([3]; 50 µM): 75.679% and 73.921% and 74.205%
inhibition ratio (%) ([3]; 200 µM): 99.619% and 99.626% and 99.565%
EC50 [3, 6]: 11.5 µM
half-life (PK study in mice; iv, 10 mg/kg, T1/2, mice, i.v. 10 mg/kg): 34.8 ± 37.8 min
half-life (PK study in mice; iv, 10 mg/kg, T1/2, mouse, i.v. 10 mg/kg, mean): 34.8 min
half-life (PK study in mice; po, 30 mg/kg, T1/2, mice, p.o. 30 mg/kg): 104 min
half-life (PK study in mice; po, 30 mg/kg, T1/2, mouse, p.o. 30 mg/kg, mean): 104 min
T1/2 (PK study in mice; i.v. 10 mg/kg, 10 mg/kg): 7.2 min and 97.2 min and 5.4 min and 40.2 min and 22.8 min
T1/2 (PK study in mice; p.o. 30 mg/kg, 30 mg/kg): 111 min and 187 min and 86.4 min and 78.6 min and 58.8 min

O=c1c(O)c(-c2cc(O)c(O)c(O)c2)oc2cc(OP(=O)(Oc3ccccc3)Oc3ccccc3)cc(O)c12 [compound 9]
EC50 [3, 6]: 3.15 µM

O=C1c2c(O)cc(OP(=O)(Oc3ccccc3)Oc3ccccc3)cc2O[C@H](c2cc(O)c(O)c(O)c2)[C@H]1O [compound 10]
EC50 [3]: 6.99 µM and 8.24 µM and 10.2 µM and 10.4 µM and 8.4 µM
EC50 [3, 10]: 9.94 µM
EC50 [3, 6]: 9.03 µM

O=C1c2c(O)cc(O)cc2O[C@H](c2cc(O)c(O)c(O)c2)[C@H]1O [dihydromyricetin]
EC50 [3]: 13.9 µM and 9.94 µM and 13.7 µM and 14 µM and 17.6 µM
EC50 [3, 10]: 12.3 µM
EC50 [3, 6]: 13.6 µM

O=c1c(O)c(-c2cc(O)c(O)c(O)c2)oc2cc(O)cc(O)c12 [myricetin, 3,5,7,3′,4′,5′-hexahydroxyflavone]
MRT (in vivo; ip, 10 mg/kg): 5.4 min
AUC(0-inf) (in vivo; ip, 10 mg/kg): 1040 ng·h/mL
AUC(0-t) (in vivo; ip, 10 mg/kg): 1090 ± 103 ng·h/mL
Cmax (in vivo; ip, 10 mg/kg): 1800 ± 346 ng/mL
MRT inf (in vivo; ip, 10 mg/kg): 66.6 min
half-life (in vivo; ip, 10 mg/kg): 126 ± 1.2 min
MRT (in vivo; po, 30 mg/kg): 50.4 min
AUC(0-inf) (in vivo; po, 30 mg/kg): 8.51 ng·h/mL
AUC(0-t) (in vivo; po, 30 mg/kg): 6.07 ng·h/mL
Cmax (in vivo; po, 30 mg/kg): 8.59 ng/mL
MRT inf (in vivo; po, 30 mg/kg): 50.4 min
half-life (in vivo; po, 30 mg/kg): 26.4 min
Tmax (in vivo; po, 30 mg/kg, Tmax): 30 min
T1/2 ([4]; mouse): 26.4 min
EC50 [3, 6]: 8 µM
IC50 [5]: 132 ± 10.6 µM
times weaker than against 3CLpro [5]: more than 100
CC50 (in vitro): > 200 µM
myricetin consumed ([2]; absence of oxygen): 11%
Ln(%parent) ([2]; myricetin reacting with glutathione, 0h): 4.593 and 4.572 and 4.649
Ln(%parent) ([2]; myricetin reacting with glutathione, 2h): 4.472 and 4.529 and 4.531
Ln(%parent) ([2]; myricetin reacting with glutathione, 4h): 4.27 and 4.376 and 4.3091
Ln(%parent) ([2]; myricetin reacting with glutathione, 6h): 4.107 and 4.203 and 4.174
Ln(%parent) ([2]; myricetin reacting with glutathione, 8h): 3.902 and 4.0179 and 3.984
Ln(%parent) ([2]; myricetin reacting with glutathione, 10h): 3.729 and 3.812 and 3.826
kpseudo1st ([2]; myricetin reacting with glutathione, single independent experiment): 0.001475 and 0.001311 and 0.001403
myricetin consumed ([2]; presence of oxygen): 65%
times weaker than against 3CLpro (SARS-CoV-2 PLpro): more than 100

CCC(CC)COC(=O)[C@H](C)N[P@](=O)(OC[C@H]1O[C@@](C#N)(c2ccc3c(N)ncnn23)[C@H](O)[C@@H]1O)Oc1ccccc1 [remdesivir, reference compound]
EC50 [3, 6]: 3.68 µM

CCC(CC)COC(=O)[C@H](C)N[P@](=O)(OC[C@H]1O[C@@](C#N)(c2ccc3c(N)ncnn23)[C@H](O)[C@@H]1O)Oc1ccccc1 [remisivir]
EC50 ([3]; read-out: EC50 (µM) Mean): 3.68 µM
inhibition ratio (%) (Vero E6 cells; concentration 2.34375 (unit not given)): 99.5877% and 102.33% and 102.223%
inhibition ratio (%) (Vero E6 cells; concentration 4.6875 (unit not given)): 100.126% and 103.513% and 104.159%
inhibition ratio (%) (Vero E6 cells; concentration 9.375 (unit not given)): 103.244% and 98.6198% and 99.2113%
inhibition ratio (%) (Vero E6 cells; concentration 18.75 (unit not given)): 101.362% and 100.126% and 95.6085%
inhibition ratio (%) (Vero E6 cells; concentration 37.5 (unit not given)): 102.707% and 103.352% and 97.8132%
inhibition ratio (%) (Vero E6 cells; concentration 75 (unit not given)): 97.383% and 95.0708% and 98.7274%
inhibition ratio (%) (Vero E6 cells; concentration 150 (unit not given)): 83.7247% and 84.1011% and 85.4454%
inhibition ratio (%) (Vero E6 cells; concentration 300 (unit not given)): 42.4807% and 43.2336% and 43.126%

N-phenylacrylamide [reference compound]
kpseudo1st [2]: 0.02117 and 0.01952 and 0.0207
